Test results published in patent US8168199B2, “Dipeptidyl peptidase IV inhibitors for the treatment of schizophrenia and depression” (priority 2000, dated 2012).
“Also recorded” adds a separate entry of the source.

Test system: Male WistarF/Han (WF) rats
Test: Response to novelty (Open field test), i.c.v. P32/98
Format: in vivo, rat
Experimental: Animals. Male WistarF/Han (WF) rats (Central Animal Laboratory, Hannover Medical School, Hannover, Germany, weighing 350-390 g, were housed in a sound-proof, temperature controlled (24.0±0.5° C.) room under specific pathogen free conditions with a 12/12 h dark/light cycle (lights on at 07.00 with illumination level of 80 Lux). Food (Altromin lab chow pellets) and tap water were available ad libitum. Under ketamine/xylasine (100/5 mg/kg, i.p.) anesthesia, the rats were fixed in a Kopf stereotaxic frame and implanted with cannulae (Plastic One, Inc., Roanoke, Va., USA) above the lateral ventricle. All research and animal care procedures were approved by the Lower Saxony district government (Hannover, Germany) and followed principles described in the European Community's Council Directive of 24 Nov. 1986 (86/609/EEC).
Surgery and i.c.v. application. For surgery, rats were anesthetized and prepared with i.c.v. cannulaes (coordinates: A: −0.7 mm caudal, L: 1.4 mm lateral to bregma; and V: 3.2 mm ventral to the skull surface; tooth bar +3.0 above ear bars) using standard stereotaxic procedures as described in detail elsewhere (von Hörsten et al., 1998a,b,c). […]
Response to novelty (Open field test). […] Spontaneous activity during a single continuous test session of 15 min was recorded using a video path analyzer system (E61-21 Video Path Analyser system, Coulbourn instruments, PA, U.S.A.). […] Furthermore, the total incidence of fecal boli was counted after each session and the incidence and duration (sec) of grooming behavior was simultaneously recorded from a video monitor by a person blind to the treatment of the animals (von Hörsten et al., 1998c).
Statistical analysis. For statistical analysis, behavioral raw data from every test minute were analyzed by two-way analyses of variance (ANOVA) for repeated measures (factors: treatment and time as a repeated measurement). Data obtained as totals from a session were analyzed by one-way (factor: treatment) ANOVA. […]

With `CC[C@H](C)[C@H](N)C(=O)N1CCSC1` [P32/98] the “activity in the open field (distance traveled)” value (i.c.v. 0.05, 5, 500 nmol, 60 min before test, four consecutive minutes, vs aCSF) was “no effect on activity; also recorded: no significant effect”, the “time spent close to the wall in the open field” value (i.c.v. 0.05, 5, 500 nmol, 60 min before test, sum of four consecutive minutes, vs aCSF) was “dose-dependent reduction; also recorded: significant effect” and the “dosage already effective on time spent close to the wall” value (i.c.v., open field) was 50 pmol.
